Experimental data taken from US20110027324A1, “O-DESMETHYL-V[…] TREATING MAJOR DEPRESSIVE DISORDER” (Wyeth LLC, priority 2007, published 2011).

Tests used:
[1] = system: subjects with a primary diagnosis of MDD; assay: MDD Study No. 1: efficacy evaluation, randomized double-blind placebo-controlled 8-week study; format: in vivo, human
Experimental: This example describes the results of a multicenter, randomized, double-blind, placebo-controlled, parallel-group study that was designed to evaluate the efficacy and safety of 50 and 100 mg/day ODV for treating MDD.
Subjects were male or female outpatients at least 18 years of age who had depressive symptoms for at least 30 days before the screening visit, and a primary diagnosis of MDD based on the criteria in the Diagnostic and Statistical Manual of Mental Disorders, Fourth edition (DSM-IV), single or recurrent episode, without psychotic features. Minimum screening and baseline scores of 20 on the Hamilton Rating Scale for Depression, 17-item (HAM-D17), of 2 on item 1 (depressed mood) on the HAM-D17, and of 4 on the Clinical Global Impressions Scale-Severity (CGI-S) were also required.
The planned enrollment was 480 subjects. A total of 703 subjects were screened for participation; 229 were screen failures and 474 were randomly assigned to treatment: 159 were assigned to receive placebo, 158 were assigned to receive ODV 50 mg/day; and 157 were assigned to receive ODV 100 mg/day. Twenty-three (23) of these 474 subjects were considered “no-data subjects” (randomized to treatment without information as to treatment). […]
The primary outcome variable was the HAM-D17 total score. The key secondary outcome variable was the Clinical Global Impressions Scale-Improvement (CGI-D score. Other secondary efficacy variables included the CGI-S, the Montgomery and Asberg Depression Rating Scale (MADRS) score, the HAM-D6 (Bech version: HAM-D17 items 1, 2, 7, 8, 10, and 13) score, the Covi Anxiety Scale total score, the remission rate (percentage of subjects with HAM-D17 scores of ≦7), response rates for the HAM-D17 (50% or greater change from baseline in the HAM-D17 total score), MADRS, and CGI-I, and the visual analog scale for pain intensity (VAS-PI). Self-administered health outcomes assessments were measured by the Sheehan Disability Scale (SDS) and the World Health Organization 5-Item Well-Being Index (WHO-5). […]

[2] = system: subjects with a primary diagnosis of MDD; assay: MDD Study No. 2: efficacy evaluation, randomized double-blind placebo-controlled study; format: in vivo, human
Experimental: This example describes the results of a second multicenter, randomized, double-blind, placebo-controlled, parallel-group study that was also designed to evaluate the efficacy and safety of 50 and 100 mg/day ODV for treating MDD.
Subjects were male or female adults that met the same criteria as the subjects in Example 1. The planned enrollment was 450 subjects. A total of 565 subjects were screened for participation; 80 were screen failures and 485 were randomly assigned to treatment: 161 were assigned to receive placebo, 166 were assigned to receive ODV 50 mg/day; and 158 were assigned to receive ODV 100 mg/day. All 485 randomized subjects were included in the safety population (completed the prestudy period and took at least 1 dose of double-blind study drug). The intent-to-treat [ITT] efficacy population included 483 subjects, and the per-protocol [PP] efficacy population included 440 subjects. Completers for exposure (353 subjects) were defined as subjects who had at least 53 days of exposure to study drug.
The administration protocols for 50 or 100 mg/day and placebo groups were the same as in Example 1.
The primary and secondary outcomes were the same as in Example 1 as were the statistical methods. P-values of less than 0.05 are shown in bold.

Q: With `CN(C)CC(c1ccc(O)cc1)C1(O)CCCCC1` (stereo not shown) [ODV, 1-[2-(dimethylamino)-1-(4-phenol)ethyl]-cyclohexanol] as the compound, how does the “HAM-D17 total score, adjusted mean change from baseline” value ([1]; 50 mg/day, FOT evaluation, ANCOVA LOCF, placebo −9.53) read?
A: −11.5

Q: And the “HAM-D17 total score, adjusted mean change from baseline” value ([1]; 50 mg/day, week 8, mixed-effects model, placebo −9.86)?
A: −12.40

Q: What about the “HAM-D17 total score, adjusted mean change from baseline” value ([1]; 100 mg/day, week 8, mixed-effects model, placebo −9.86) of the same compound?
A: −11.88

Q: And the “HAM-D17 total score, adjusted mean change from baseline” value ([2]; 50 mg/day, FOT evaluation, ANCOVA LOCF, placebo −10.7)?
A: −13.2

Q: And the “HAM-D17 total score, adjusted mean change from baseline” value ([2]; 50 mg/day, week 8, mixed effect model, placebo −11.5)?
A: −14.4

Q: And the “HAM-D17 total score, adjusted mean change from baseline” value ([2]; 100 mg/day, FOT evaluation, ANCOVA LOCF, placebo −10.7)?
A: −13.7

Q: And the “HAM-D17 total score, adjusted mean change from baseline” value ([2]; 100 mg/day, week 8, mixed effect model, placebo −11.5)?
A: −14.9
